For data set [1] the following is noted: patients with inflammatory bowel disease; cited from earlier work.
The subject of data set [2] is TNBS-induced colitis. As to the kind of experiment: Histological assessment of TNBS-induced colitis. The data set is classed as in vivo, rat. Particulars: for Cumulative (aggregate) microscopic colitis injury score: 8 days after TNBS, 5-day treatment, scale 0-15; for Decrease in aggregate microscopic injury score: 11 days after TNBS, 8-day treatment, vs TNBS alone. From the text: Male Sprague Dawley rats (200-250 grams) were housed in cages containing contact bedding. Rats were deprived of food for 24 hrs prior to the induction of colitis, but were allowed free access to water throughout the experiment. Institutional approval for experimental protocols was provided by the research and animal care committees of the research services at the Oklahoma City Veterans Administration Medical Center. Following a 24 hr fast, rats were lightly anesthetized using isoflurane followed by insertion of a polyethylene catheter into the anus. The tip of the catheter was advanced 8 cm proximal from the anus and a single dose of TNBS (Sigma, St. Louis, Mo.), dissolved in 50% ethanol, was injected through the cannula (15 mg dissolved in a 0.6 ml volume of 50% ethanol) to induce colitis. Following the administration of TNBS the animals were maintained in a head-down position for approximately 60 seconds to prevent leakage of the infusate. After 72 hrs, rats dosed initially with TNBS were randomly assigned to one of four treatment groups to receive daily intracolonic therapy in a manner similar to that used for TNBS administration. […] An additional group of rats (Group E) served as control and received saline per rectum on day 0 and at subsequent intervals that corresponded to treatment protocols. Rats were treated for either 5 or 8 days and then sacrificed by cervical dislocation. FIG. 1 illustrates the design of these experiments. Colonic tissue samples taken from the initial segment were immersed in 10% phosphate buffered formalin and subsequently embedded in paraffin. Sections of 3 micron thickness were cut and stained with hematoxylin and eosin. The slides were then evaluated by a pathologist for epithelial damage, architectural changes, mononuclear infiltration, polymorphonuclear leukocyte (PMN) infiltration and ulceration. The individual microscopic features of colitis were graded according to criteria noted in Table 2. In addition to scoring individual features of colitis, an aggregate score of colitis was tabulated by adding together individual scores, thus, providing a global assessment of colitis. [table]

A further data set has as its system TNF-α. Briefly: Cytokine gene expression in rat colon (RPA), TNBS colitis. The data set is classed as in vivo. Particulars: 11 days after TNBS, 8-day treatment. As for the experimental part:
(§1) Following a 24 hr fast, rats were lightly anesthetized using isoflurane followed by insertion of a polyethylene catheter into the anus. The tip of the catheter was advanced 8 cm proximal from the anus and a single dose of TNBS (Sigma, St. Louis, Mo.), dissolved in 50% ethanol, was injected through the cannula (15 mg dissolved in a 0.6 ml volume of 50% ethanol) to induce colitis. Following the administration of TNBS the animals were maintained in a head-down position for approximately 60 seconds to prevent leakage of the infusate. After 72 hrs, rats dosed initially with TNBS were randomly assigned to one of four treatment groups to receive daily intracolonic therapy in a manner similar to that used for TNBS administration. […] An additional group of rats (Group E) served as control and received saline per rectum on day 0 and at subsequent intervals that corresponded to treatment protocols. Rats were treated for either 5 or 8 days and then sacrificed by cervical dislocation. FIG. 1 illustrates the design of these experiments. Following the manufacturer's protocol, 1 ml of TRI Reagent (Sigma, St. Louis, Mo.) is used per 100 mg of tissue. The frozen tissue is placed into the TRI Reagent and immediately homogenized using a tissue macerator. The homogenates are transferred to microcentrifuge tubes and 0.2 ml of chloroform is added per ml of TRI Reagent used. The samples are shaken thoroughly and allowed to sit at room temp for 3 min. Samples were then centrifuged at 12000×g for 15 min at […]. After centrifugation, the upper aqueous phase was transferred to a new tube and […] of 2-propanol is added to precipitate the RNA. After sitting at room temp for 10 min. the samples are centrifuged at 12000×g for 15 min. The supernatants are discarded and the pellets are washed in 70% ethanol followed by centrifugation at 12000×g for 5 min. The ethanol was removed and the pellets are dissolved in 50 μl of DEPC treated water per sample. Quantitation is performed by spectrophotometry at 260 nm and 280 nm. RPA analysis was performed with RiboQuant™ multi-probe RNase protection assay system (BD Biosciences-Pharmingen, San Diego, Calif.). To 20 μg of total RNA in 8 μl of hybridization buffer and 2 μl of ^32P-labeled in vitro transcribed RNA probes were added. The probes were transcribed from the multiprobe template set rCK-1 which as a panel of probes against IL-1a, IL-1b, IL-3, IL-5, IL-10, IL-2, TNFα, TNBβ, GAPDH genes. Probes were prepared according to the manufactures protocol. The RNA samples containing labeled probes were incubated briefly at 90° C., slowly cooled to 56° C. and hybridized overnight at that temperature. The samples were then slowly cooled to 30° C. Thereafter, a mixture of RNases A and T1 was added to digest single-stranded RNA leaving the double-stranded RNA formed by the probes annealing to their cognate mRNAs intact. Following proteinase K digestion and phenol-chloroform extraction, the undigested double-stranded RNA was precipitated with ammonium acetate and ethanol. […] The ethanol was removed and the pellets were dissolved in 5 μl of formamide loading dye. The double-stranded RNAs were resolved on a 5% polyacrylamide/urea gel run in TBE buffer. After electrophoresis, the gel was dried at 80° C. under vacuum and then exposed to a PhosphorImager screen overnight. Detection and quantitation of the resolved bands on the gel were performed on a Storm PhosphorImager™ system (Amersham Biosciences, Piscataway, N.J.).

The test system of a further data set is IL-6. The description is as above. Particulars: 11 days after TNBS, 8-day treatment. Type of data set: in vivo. As to the method:
as §1

The test system of the next data set is IL-1A. The description is as above. The data set is classed as in vivo. Particulars: 11 days after TNBS, 8-day treatment. As to the method: as §1
The subject of the next data set is IL-4. Described as above. Particulars: 11 days after TNBS, 8-day treatment. Type of data set: in vivo. As for the experimental part:
as §1

Another data set deals with IL-1B. The data set is described as above. Type of data set: in vivo. Particulars: 11 days after TNBS, 8-day treatment. As for the experimental part: as §1
Another data set concerns DSS-induced colitis. Briefly: Histological assessment of DSS-induced colitis. The data set is classed as in vivo, rat. Particulars: DSS colitis (4% DSS, 4 days); 4-day intracolonic treatment; maximal score 12. An excerpt: Male Sprague Dawley rats (200-250 grams) were housed in cages containing contact bedding. Rats were deprived of food for 24 hrs prior to the induction of colitis, but were allowed free access to water throughout the experiment. Institutional approval for experimental protocols was provided by the research and animal care committees of the research services at the Oklahoma City Veterans Administration Medical Center. Colitis was induced by oral administration of a 4% solution of DSS (dextran sulfate sodium) in drinking water for 4 days. […] Animals received treatment for 4 days. Macroscopic indices of colonic injury were scored and tabulated. Histological features that were examined included epithelial damage and mucosal ulceration. Additional measures included determination of serum C-reactive protein (CRP) levels and cytokine gene expression in colonic tissues performed by ribonuclease protection assay (RPA). Colonic tissue samples taken from the initial segment were immersed in 10% phosphate buffered formalin and subsequently embedded in paraffin. Sections of 3 micron thickness were cut and stained with hematoxylin and eosin. The slides were then evaluated by a pathologist for epithelial damage, architectural changes, mononuclear infiltration, polymorphonuclear leukocyte (PMN) infiltration and ulceration. […]

Data set [3] deals with TNBS-induced colitis. As to the kind of experiment: Macroscopic assessment of TNBS-induced colitis. The data set is classed as in vivo, rat. Particulars: scale 0-6. From the text: Male Sprague Dawley rats (200-250 grams) were housed in cages containing contact bedding. Rats were deprived of food for 24 hrs prior to the induction of colitis, but were allowed free access to water throughout the experiment. Institutional approval for experimental protocols was provided by the research and animal care committees of the research services at the Oklahoma City Veterans Administration Medical Center.
(§2) Following a 24 hr fast, rats were lightly anesthetized using isoflurane followed by insertion of a polyethylene catheter into the anus. The tip of the catheter was advanced 8 cm proximal from the anus and a single dose of TNBS (Sigma, St. Louis, Mo.), dissolved in 50% ethanol, was injected through the cannula (15 mg dissolved in a 0.6 ml volume of 50% ethanol) to induce colitis. Following the administration of TNBS the animals were maintained in a head-down position for approximately 60 seconds to prevent leakage of the infusate. After 72 hrs, rats dosed initially with TNBS were randomly assigned to one of four treatment groups to receive daily intracolonic therapy in a manner similar to that used for TNBS administration. […] An additional group of rats (Group E) served as control and received saline per rectum on day 0 and at subsequent intervals that corresponded to treatment protocols. Rats were treated for either 5 or 8 days and then sacrificed by cervical dislocation. FIG. 1 illustrates the design of these experiments.
Upon sacrifice, the distal 8 cm of the colon was removed, opened by a longitudinal incision and rinsed with phosphate buffered saline to remove fecal material. Macroscopic assessment of colitis was carried out by an independent observer who was unaware of the treatment groups. Inflammation was present if the mucosa was erythematous. Ulceration of the mucosa was defined as a distinct break or interruption of the mucosa. Once macroscopic damage was assessed full thickness colonic tissue samples were taken from the inflamed areas and either processed for histology or snap frozen in liquid nitrogen for subsequent cytokine measurement and determination of myeloperoxidase (MPO) activity.

The test system of another data set is Myeloperoxidase activity. As to the kind of experiment: Myeloperoxidase activity in colon tissue, TNBS colitis. Type of data set: in vivo, rat. Particulars: 11 days after TNBS; 8-day treatment. As to the method:
as §2, with “experiments. Myeloperoxidase activity was used as an indirect measure of the severity of colonic inflammation by PMNs. […] C. The tissues were then removed from storage at −80° C. and allowed to thaw on ice. […] The absorbance changes were read at 450 nm and recorded. Results were expressed as ng/ml/g of tissue.” for “experiments.”

[4] abbreviates: 8 days after TNBS, 5-day intracolonic treatment, 5-ASA 100 mg/kg, NAC 40 mM.
[5] abbreviates: 11 days after TNBS, 8-day intracolonic treatment.

On to `O=C(O)c1cc(/N=N/c2ccc(S(=O)(=O)Nc3ccccn3)cc2)ccc1O` [sulfasalazine], for which the “Patients who cannot tolerate this medication (side effects)” value in data set [1] is reported as “up to one third”.

In the case of `Nc1ccc(O)c(C(=O)O)c1` [5-ASA, 5-aminosalicylic acid], in the data set on TNBS-induced colitis [2], the “Cumulative (aggregate) microscopic colitis injury score” value was 9.0±0.9 and the “Decrease in aggregate microscopic injury score” value turned out to be 46%. For the same compound, the “TNF-α gene expression, Mean ± SEM” value in the data set with TNF-α came to 1.25 ± 0.12 Relative O.D units. For the same compound, in the data set on IL-6, the “IL-6 gene expression, Mean ± SEM” value came out at 0.79 ± 0.22 Relative O.D units. Moreover, in the data set on IL-1A, the “IL-1A gene expression, Mean ± SEM” value was found to be 1.33 ± 0.18 Relative O.D units. For the same compound, in the data set on IL-4, the “IL-4 gene expression, Mean ± SEM” value was 1.40 ± 0.25 Relative O.D units. In addition, in the data set on IL-1B, the “IL-1B gene expression, Mean ± SEM” value is 11.49 ± 2.54 Relative O.D units. Also, in the data set on DSS-induced colitis, the “Aggregate microscopic injury score” value turned out to be 4.1±0.9. Further, the Macroscopic injury score in the data set with TNBS-induced colitis [3] (setting [4]) is reported as 3.0±0.7. Moreover, the Macroscopic injury score in the data set on TNBS-induced colitis [3] (setting [5]) is 1.8±0.2. Besides, the “Reduction of MPO activity below TNBS values” with Myeloperoxidase activity is listed as 32%.

On to `CC(=O)N[C@@H](CS)C(=O)O` [NAC, N-acetylcysteine], for which the “Cumulative (aggregate) microscopic colitis injury score” value with TNBS-induced colitis [2] is on record as 9.0±1.8. In addition, the “Decrease in aggregate microscopic injury score” value in the data set on TNBS-induced colitis [2] is recorded as 53%. For the same compound, the “TNF-α gene expression, Mean ± SEM” value in the data set with TNF-α was 1.04 ± 0.017 Relative O.D units. Further, the “IL-6 gene expression, Mean ± SEM” value with IL-6 is reported as 0.76 ± 0.14 Relative O.D units. In the data set with IL-1A, the “IL-1A gene expression, Mean ± SEM” value amounted to 1.28 ± 0.16 Relative O.D units. In addition, the “IL-4 gene expression, Mean ± SEM” value with IL-4 is 1.20 ± 0.26 Relative O.D units. The “IL-1B gene expression, Mean ± SEM” value in the data set on IL-1B is on record as 11.88 ± 1.0 Relative O.D units. For the same compound, the “Aggregate microscopic injury score” value in the data set on DSS-induced colitis was 4.0±1.1. In addition, the Macroscopic injury score was found to be 4.1±0.6 with TNBS-induced colitis [3] (setting [4]) and 1.2±0.2 in the data set on TNBS-induced colitis [3] (setting [5]). In addition, the “Reduction of MPO activity below TNBS values” with Myeloperoxidase activity is 40%.

Source of the values: patent US8629127B2, “Compositions and methods of treatment for inflammatory diseases” (The Board of Regents of the University of Oklahoma, priority 2004, dated 2014).
